How the values were obtained:
Assay type in all cases: biochemical
PIP4K2A [1] = molecular target: T1, PIP4K2A (Homo sapiens, UniProt P48426); test: ADP-glo kinase assay PIP4K 2A (Table 3); design: made in house; host or cells: E. coli; conditions: compounds listed under IC50 bins
T1 sequence (P48426 1-406): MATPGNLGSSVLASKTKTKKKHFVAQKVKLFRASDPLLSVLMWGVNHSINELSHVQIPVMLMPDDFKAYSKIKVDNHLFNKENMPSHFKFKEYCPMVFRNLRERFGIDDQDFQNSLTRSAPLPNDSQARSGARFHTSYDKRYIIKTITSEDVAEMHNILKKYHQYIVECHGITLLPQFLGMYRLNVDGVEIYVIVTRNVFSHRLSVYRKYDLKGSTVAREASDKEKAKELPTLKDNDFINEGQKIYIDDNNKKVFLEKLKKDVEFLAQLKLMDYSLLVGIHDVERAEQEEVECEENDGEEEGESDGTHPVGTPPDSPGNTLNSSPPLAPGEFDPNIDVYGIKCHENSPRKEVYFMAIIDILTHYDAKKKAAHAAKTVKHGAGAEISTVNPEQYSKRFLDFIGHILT
Procedure: Dilution series of the compounds were prepared in DMSO at 100 times the final assay concentration (n1=n0/3 in 10 points). The compounds were further diluted to three times the assay concentration in assay buffer (20 mM MOPS pH 7.2, 25 mM magnesium chloride, 0.005% Tween 20). 6 μL of the diluted compounds were added to a 384 well assay plate followed by 9 μL of a mix consisting of 4 nM PIP4K2A (full length protein, SignalChem) and 100 μM PI(5)P diC8 (Tebu-Bio). Enzyme and compounds were pre-incubated at room temperature for 15 minutes.
Then 3 μL of a solution containing 60 μM ATP (Promega) in assay buffer was added to the wells containing compound and enzyme and mixing was performed by pipetting several times. The reaction was incubated at room temperature for 1 h. Then 18 μL of ADP-Glo™ Reagent (Promega) was added to stop the kinase reaction and deplete the unconsumed ATP, mixing was performed by pipetting several times. The plate was incubated at room temperature for 40 minutes before addition of 36 μL of Kinase Detection Reagent (Promega) to convert ADP to ATP and introduce luciferase and luciferin to detect ATP. The reaction was incubated at room temperature for 40 minutes before the luminescence was measured in a in a Victor 3V 1420 multilabel counter (Perkin Elmer).
Percent inhibition of the compounds as compared to dimethyl sulfoxide treated control samples was calculated. Compound concentration versus percent inhibition were fitted to generate IC50 values. […]

PIP4K2A [2] = molecular target: T1, PIP4K2A; test: Kinase Assay PIP4K2 A (Table 2); design: 4 nM PIP4K2A (full length protein, SignalChem); purchased SignalChem; conditions: compounds listed under IC50 bins
Summary of the method: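 ADP-Glo luminescent read-out after 1 h room-temperature kinase reaction, started with 60 μM ATP solution following 15 min compound pre-incubation. Enzyme/substrate mix: 4 nM full-length PIP4K2A plus 100 μM PI(5)P diC8; buffer MOPS pH 7.2 with 25 mM MgCl2 and Tween 20. IC50 from 10-point, 3-fold titrations normalized to DMSO.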

PIP4K2B = molecular target: T2, PIP4K2B (Homo sapiens, UniProt P78356); test: Trans-FI P kinase assay PIP4K2B (Table 4); conditions: compounds listed under IC50 bins; read-out: Trans-FI P kinase assays: PIP4K2B IC50
T2 construct: made in house; host or cells: E. coli
T2 sequence (P78356 1-416): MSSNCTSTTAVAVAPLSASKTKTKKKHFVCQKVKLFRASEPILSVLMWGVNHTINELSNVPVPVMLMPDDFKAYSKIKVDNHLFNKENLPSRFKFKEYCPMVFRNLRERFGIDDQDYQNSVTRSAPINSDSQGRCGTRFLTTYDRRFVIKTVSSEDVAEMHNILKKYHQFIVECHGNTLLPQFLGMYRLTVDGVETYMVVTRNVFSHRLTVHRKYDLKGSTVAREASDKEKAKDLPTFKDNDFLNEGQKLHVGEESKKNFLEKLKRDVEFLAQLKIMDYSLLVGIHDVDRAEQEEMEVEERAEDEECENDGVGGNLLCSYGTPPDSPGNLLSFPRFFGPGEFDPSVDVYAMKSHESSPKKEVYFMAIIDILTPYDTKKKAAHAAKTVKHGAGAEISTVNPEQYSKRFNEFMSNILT
Summary of the method: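 Transcreener FI detection (Ex 584/Em 623) of GDP, converted via calibration curve, gives IC50 from residual activity versus log concentration (highest 4.8 μM). Reaction: 80 μM PI5P plus DOPE carrier, 100 μM GTP, 5 nM GST-tagged enzyme, pH 7.3 HEPES with MgCl2 and 5% DMSO, 2 h after 1 h enzyme-compound preincubation at 27° C.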

| SMILES | IC50 (PIP4K2A [1]) | IC50 (PIP4K2A [2]) | IC50 (PIP4K2B) |
| --- | --- | --- | --- |
| CN(C)C(=O)c1cnc(-c2ccc(Nc3cccnc3)nc2)nc1 [Example 29, N,N-dimethyl-2-(6-(pyridin-3-ylamino)pyridin-3-yl)pyrimidine-5-carboxamide] | > 1000 nM | > 1000 nM | > 1000 nM |
| CC1CN(C(=O)Nc2cncc(Nc3ccc(-c4ccc(N5CCCC5=O)cc4)cn3)c2)CCO1 (stereo not drawn) [Example 250, 2-methyl-N-(5-((5-(4-(2-oxopyrrolidin-1-yl)phenyl)pyridin-2-yl)amino)pyridin-3-yl)morpholine-4-carboxamide] | 100 to 1000 nM | – | 10 to 100 nM |
| O=C(Nc1cncc(Nc2ccc(-c3ccc(N4CCCC4=O)cc3)cn2)c1)N1CCOCC1 [Example 251, N-(5-((5-(4-(2-oxopyrrolidin-1-yl)phenyl)pyridin-2-yl)amino)pyridin-3-yl)morpholine-4-carboxamide] | 100 to 1000 nM | – | 10 to 100 nM |
| COc1cc(C(=O)Nc2cncc(Nc3ccc(-c4ccc(N5CCCC5=O)cc4)cn3)c2)c2[nH]cnc2c1 [Example 253, 5-methoxy-N-(5-((5-(4-(2-oxopyrrolidin-1-yl)phenyl)pyridin-2-yl)amino)pyridin-3-yl)-1H-benzo[d]imidazole-7-carboxamide] | 10 to 100 nM | – | 10 to 100 nM |
| O=C(Nc1cncc(Nc2ccc(-c3ccc(N4CCCC4=O)cc3)cn2)c1)c1nn[nH]n1 [Example 254, N-(5-((5-(4-(2-oxopyrrolidin-1-yl)phenyl)pyridin-2-yl)amino)pyridin-3-yl)-2H-tetrazole-5-carboxamide] | 10 to 100 nM | – | 10 to 100 nM |
| CC1(C)C[C@H]2COc3ncc(Nc4ccc(-c5ccc(N6CCCC6=O)cc5)cn4)cc3N2C1=O [Example 255, (S)-8,8-dimethyl-2-((5-(4-(2-oxopyrrolidin-1-yl)phenyl)pyridin-2-yl)amino)-6,6a,7,8-tetrahydro-9H-pyrido[2,3-b]pyrrolo[1,2-d][1,4]oxazin-9-one] | 1 to 10 nM | – | 10 to 100 nM |
| CC1CN(C(=O)Nc2cncc(Nc3ccc(-c4ccc(N5CCCC5=O)cc4)cn3)c2)CCN1 (stereo not drawn) [Example 256, 3-methyl-N-(5-((5-(4-(2-oxopyrrolidin-1-yl)phenyl)pyridin-2-yl)amino)pyridin-3-yl)piperazine-1-carboxamide] | 10 to 100 nM | – | 10 to 100 nM |
| O=C(Nc1cncc(Nc2ccc(-c3ccc(N4CCCC4=O)cc3)cn2)c1)N1CCNC(C2CC2)C1 (stereo not drawn) [Example 257, 3-cyclopropyl-N-(5-((5-(4-(2-oxopyrrolidin-1-yl)phenyl)pyridin-2-yl)amino)pyridin-3-yl)piperazine-1-carboxamide] | 100 to 1000 nM | – | 10 to 100 nM |
| CC1C[C@H]2COc3ncc(Nc4ccc(-c5ccc(N6CCCC6=O)cc5)cn4)cc3N2C1=O (stereo partly drawn) [Example 259, (6aS)-8-methyl-2-((5-(4-(2-oxopyrrolidin-1-yl)phenyl)pyridin-2-yl)amino)-6,6a,7,8-tetrahydro-9H-pyrido[2,3-b]pyrrolo[1,2-d][1,4]oxazin-9-one] | 10 to 100 nM | – | 10 to 100 nM |
| O=C1CCCN1c1ccc(-c2ccc(Nc3cnc4c(c3)N3C(=O)C5(CC5)C[C@H]3CO4)nc2)cc1 [Example 260, (S)-2′-((5-(4-(2-oxopyrrolidin-1-yl)phenyl)pyridin-2-yl)amino)-6a′,7′-dihydro-6′H,9′H-spiro[cyclopropane-1,8′-pyrido[2,3-b]pyrrolo[1,2-d][1,4]oxazin]-9′-one] | 1 to 10 nM | – | 1 to 10 nM |
| CC1C[C@H]2COc3ncc(Nc4ccc(-c5ccc(N6CCCC6=O)c(F)c5)cn4)cc3N2C1=O (stereo partly drawn) [Example 261, (6aS)-2-((5-(3-fluoro-4-(2-oxopyrrolidin-1-yl)phenyl)pyridin-2-yl)amino)-8-methyl-6,6a,7,8-tetrahydro-9H-pyrido[2,3-b]pyrrolo[1,2-d][1,4]oxazin-9-one] | 1 to 10 nM | – | 10 to 100 nM |
| O=C(Nc1cncc(Nc2ccc(-c3ccc(N4CCCC4=O)cc3)cn2)c1)N1CCOC(C2CC2)C1 (stereo not drawn) [Example 262, 2-cyclopropyl-N-(5-((5-(4-(2-oxopyrrolidin-1-yl)phenyl)pyridin-2-yl)amino)pyridin-3-yl)morpholine-4-carboxamide] | 100 to 1000 nM | – | 10 to 100 nM |
| O=C1CCCN1c1ccc(-c2ccc(Nc3cnc4c(c3)N3C(=O)OC[C@H]3CO4)nc2)cc1 [Example 265, (R)-8-((5-(4-(2-oxopyrrolidin-1-yl)phenyl)pyridin-2-yl)amino)-3a,4-dihydro-1H,3H-oxazolo[3,4-d]pyrido[2,3-b][1,4]oxazin-1-one] | 1 to 10 nM | – | 10 to 100 nM |
| CC(C)(N)c1cc(Nc2cnc3c(c2)N2C(=O)CC[C@H]2CO3)ncc1-c1ccc(N2CCCC2=O)cc1F [Example 266, (S)-2-((4-(2-aminopropan-2-yl)-5-(2-fluoro-4-(2-oxopyrrolidin-1-yl)phenyl)pyridin-2-yl)amino)-6,6a,7,8-tetrahydro-9H-pyrido[2,3-b]pyrrolo[1,2-d][1,4]oxazin-9-one] | 1 to 10 nM | – | 10 to 100 nM |
| CN1CCC(c2ccc(-c3ccc(Nc4cnc5c(c4)N4C(=O)CC[C@@H]4CO5)nc3)cc2)C1=O (stereo partly drawn) [Example 269, (6aR)-2-((5-(4-(1-methyl-2-oxopyrrolidin-3-yl)phenyl)pyridin-2-yl)amino)-6,6a,7,8-tetrahydro-9H-pyrido[2,3-b]pyrrolo[1,2d][1,4]oxazin-9-one] | > 1000 nM | – | > 1000 nM |
| C[C@@]1(O)C[C@H]2COc3ncc(Nc4ccc(-c5ccc(N6CCCC6=O)c(F)c5)cn4)cc3N2C1=O [Example 270, (6aS,8R)-2-((5-(3-fluoro-4-(2-oxopyrrolidin-1-yl)phenyl)pyridin-2-yl)amino)-8-hydroxy-8-methyl-6,6a,7,8-tetrahydro-9H-pyrido[2,3-b]pyrrolo[1,2-d][1,4]oxazin-9-one] | 10 to 100 nM | – | 10 to 100 nM |
| C[C@@]1(O)C[C@H]2COc3ncc(Nc4ccc(-c5ccc(N6CCCC6=O)cc5)cn4)cc3N2C1=O [Example 271, (6aS,8R)-8-hydroxy-8-methyl-2-((5-(4-(2-oxopyrrolidin-1-yl)phenyl)pyridin-2-yl)amino)-6,6a,7,8-tetrahydro-9H-pyrido[2,3-b]pyrrolo[1,2-d][1,4]oxazin-9-one] | 10 to 100 nM | – | 10 to 100 nM |
| O=C1NCCN1c1cncc(Nc2ccc(-c3ccc(N4CCCC4=O)c(F)c3)cn2)c1 [Example 272, 1-(5-((5-(3-fluoro-4-(2-oxopyrrolidin-1-yl)phenyl)pyridin-2-yl)amino)pyridin-3-yl)imidazolidin-2-one] | 100 to 1000 nM | – | 10 to 100 nM |
| O=C1CCCN1c1ccc(-c2ccc(Nc3cnc4c(c3)N3C(=O)OC[C@H]3CO4)nc2)cc1F [Example 295, (R)-8-((5-(3-fluoro-4-(2-oxopyrrolidin-1-yl)phenyl)pyridin-2-yl)amino)-3a,4-dihydro-1H,3H-oxazolo[3,4-d]pyrido[2,3-b][1,4]oxazin-1-one] | 1 to 10 nM | – | 10 to 100 nM |

From patent US11667651B2, “Aminopyridine derivatives as phosphatidylinositol phosphate kinase inhibitors” (HiberCell, Inc., priority 2017, dated 2023)
